Measurements published in patent US20200022967A1, “Use of 2-carboxamide cycloamino urea derivatives in the treatment of EGFR dependent diseases or diseases that have acquired resistance to agents that target EGFR family members” (Novartis AG, priority 2010, published 2020).

How the values were obtained:
HCC1954 = experiment: Cell proliferation in HCC1954 breast cancer model; type: cell-based
NCI-N87 tumors [1] = experiment: NCI-N87 subcutaneous gastric cancer xenograft, antitumor activity (Example 2); type: in vivo, mice; settings: 50 mg/kg p.o. once daily
Protocol: Experiments were performed in female HsdNpa:Athymic Nude-nu mice approximately 8-12 weeks of age at treatment start. All animals were housed under Optimized Hygienic conditions in Makrolon type III cages (max. 10 animals per cage) with free access to food and water.
NCI-N87 cells (obtained from the American Type Culture Collection), which are of gastric origin and ErbB2 amplified, were grown in DMEM culture medium containing 4.5 g/l glucose supplemented with 10% heat-inactivated FCS, 2 mM L-glutamine, and 1 mM sodium pyruvate. The cells were incubated at 37° C. in a 5% CO2 humidified atmosphere. Cells were harvested with trypsin (0.25% w/v)-EDTA (0.53 mM), re-suspended in culture medium (with additives) and counted with a Casy® system. Cell culture reagents were purchased from BioConcept (Allschwil, Switzerland).
NCI-N87 tumors were established from fragments of approximately 40 mg implanted subcutaneously into the female HsdNpa:Athymic Nude-nu mice with a trocar needle. Treatment started when the tumors reached a size of approximately 110 mm^3, 25 days post implantation.
The Compound was fully dissolved in NMP. Then, PEG300 and liquified Solutol were added (in sequence with vortexing after addition of each reagent). Water was added immediately prior to administration to the animals.
Tumor volumes were measured with calipers and determined according to the formula: length×diameter^2×π/6. […] Regressions (%) were calculated according to the formula ((mean tumor volume at end of treatment-mean tumor volume at start of treatment)/mean tumor volume at start of treatment)×100. Body weights and tumor volumes were recorded twice a week.
Where applicable, data is presented as mean±SEM. For all tests, the level of significance was set at p<0.05. For tumor volumes, comparisons between treatment groups and vehicle control group were done using one-way ANOVA followed by Dunnett's test. The level of significance of body weight change within a group between the start and the end of the treatment period was determined using a paired t-test. […]

NCI-N87 tumors [2] = experiment: NCI-N87 xenograft in CB17 SCID mice, Compound A alone and with trastuzumab (Example 4); type: in vivo
Protocol: Experiments were performed in female CB17 SCID mice (Fox Chase SCID®, CB17/lcr-Prkdc^scid, Charles River) approximately 7-8 weeks of age and having a body weight (BW) range of 14.7-21.2 g at treatment start. All animals were fed ad libitum water (reverse osmosis, 1 ppm CI) and NIH 31 Modified and Irradiated Lab Diet® consisting of 18.0% crude protein, 5.0% crude fat, and 5.0% crude fiber. The mice were housed on irradiated Enrich-O'cobs™ Laboratory Animal Bedding in static microisolators on a 12-hour light cycle at 21-22° C. and 40-60% humidity.
NCI-N87 cells (obtained from the American Type Culture Collection), which are of gastric origin and ErbB2 amplified, were maintained as exponentially growing cultures in RPMI-1640 medium supplemented with 10% fetal bovine serum, 2 mM glutamine, 100 units/mL penicillin G sodium, and 100 μg/mL streptomycin sulfate. The tumor cells were cultured in tissue culture flasks in a humid incubator at 37° C., in an atmosphere of 5% CO2 and 95% air. Cells were harvested with 1× trypsin and suspended at a concentration of 5×10^7 cells/mL in cold phosphate-buffered saline with 50% Matrigel. Each mouse was injected subcutaneously in the right flank with 1×10^7 cells (0.2 mL cell suspension). Tumor volumes were measured with calipers and determined according to the formula: width^2×length/2, and tumor weight estimated with the assumption that 1 mg is equivalent to 1 mm^3 of tumor volume. Nine days after tumor implantation (on Day 1 of the study), mice with individual tumor volumes of 126-320 mm^3 were sorted into 12 groups of eight mice with a group mean tumor volume of 231-239 mm^3.
Compound A was formulated in NMP/PEG300/Solutol HS15/deionized water (10:30:20:40% vol/vol). The Compound was fully dissolved in NMP. Then, PEG300 and liquified Solutol were added (in sequence with vortexing after addition of each reagent). Water was added prior to administration to the animals. Fresh dosing solutions were prepared weekly and stored at 4° C., protected from light.
Treatments started 9 days post tumor cell implantation and lasted for 30 consecutive days (or until tumor volume=2000 mm^3).
Where applicable, data is presented as mean±SEM. Statisticial and graphical analyses was performed with Prism 3.03 (GraphPad) for Windows. For all tests, the level of significance of differences was done using ANOVA, with Bartlett's test; and a post-hoc Dunnett's multiple comparison test compared the mean change for each drub-treated group to the mean for Group 1. […] The significance of differences between the median volume changes for drug-treated groups and Group 1 was analyzed post hoc with Dunn's multiple comparison test. The two-tailed statistical analyses were conducted at P=0.05. Prism summarizes test results as not significant (ns) at P>0.05, significant (symbolized by “*”) at 0.01<P≤0.05, very significant (symbolized by “**”) at 0.001<P≤0.01, and extremely significant (symbolized by “***”) at P≤0.001.

[3] = Group 2 (8 animals): Compound A 12.5 mg/kg p.o. once daily
[4] = Group 3 (6 animals): Compound A 25 mg/kg p.o. once daily
[5] = Group 4 (4 animals): Compound A 50 mg/kg p.o. once daily, stopped early

SMILES: Cc1nc(NC(=O)N2CCC[C@H]2C(N)=O)sc1-c1ccnc(C(C)(C)C(F)(F)F)c1 [Compound A, (S)-Pyrrolidine-1,2-dicarboxylic acid 2-amide 1-({4-methyl-5-[2-(2,2,2-trifluoro-1,1-dimethyl-ethyl)-pyridin-4-yl]-thiazol-2-yl}-amide)]
- cell death (HCC1954; HCC1954, overexpressed ErbB2): induces cell death
- GI50 (HCC1954; HCC1954 breast cancer model, read-out: median GI50): 0.687 ± 0.132 µM
- regression (NCI-N87 tumors [1]): 11%
- antitumor effect as compared to vehicle (NCI-N87 tumors [1]; p<0.05 ANOVA): statistically significant antitumor effect
- mean change of tumor volume (NCI-N87 tumors [1]; vehicle 694.0±93.5): −11.8±17.2 mm^3
- Regressions CR (complete regression) (NCI-N87 tumors [2]; [3]): CR: 0
- Regressions PR (partial regression) (NCI-N87 tumors [2]; [3]): PR: 0,
- T/C or T/T0 (NCI-N87 tumors [2]; Group 2 (8 animals): Compound A 12.5 mg/kg p.o. once daily, vs G1 ns): 46%
- Regressions CR (complete regression) (NCI-N87 tumors [2]; [4]): CR: 0
- Regressions PR (partial regression) (NCI-N87 tumors [2]; [4]): PR: 0,
- T/C or T/T0 (NCI-N87 tumors [2]; Group 3 (6 animals): Compound A 25 mg/kg p.o. once daily, vs G1 *): 12%
- Regressions CR (complete regression) (NCI-N87 tumors [2]; [5]): CR: 0
- Regressions PR (partial regression) (NCI-N87 tumors [2]; [5]): PR: 0,
- T/C or T/T0 (NCI-N87 tumors [2]; Group 4 (4 animals): Compound A 50 mg/kg p.o. once daily, stopped early, vs G1 ne): 81%
